The target in this experiment is T1, sGC α1/β1 heterodimer (Homo sapiens, UniProt Q02108+Q02153).
T1 construct: expressed in transfected cells; host or cells: CHO-K1 (clone #7, CHO-K1/sGC)
T1 sequence (Q02108 1-690): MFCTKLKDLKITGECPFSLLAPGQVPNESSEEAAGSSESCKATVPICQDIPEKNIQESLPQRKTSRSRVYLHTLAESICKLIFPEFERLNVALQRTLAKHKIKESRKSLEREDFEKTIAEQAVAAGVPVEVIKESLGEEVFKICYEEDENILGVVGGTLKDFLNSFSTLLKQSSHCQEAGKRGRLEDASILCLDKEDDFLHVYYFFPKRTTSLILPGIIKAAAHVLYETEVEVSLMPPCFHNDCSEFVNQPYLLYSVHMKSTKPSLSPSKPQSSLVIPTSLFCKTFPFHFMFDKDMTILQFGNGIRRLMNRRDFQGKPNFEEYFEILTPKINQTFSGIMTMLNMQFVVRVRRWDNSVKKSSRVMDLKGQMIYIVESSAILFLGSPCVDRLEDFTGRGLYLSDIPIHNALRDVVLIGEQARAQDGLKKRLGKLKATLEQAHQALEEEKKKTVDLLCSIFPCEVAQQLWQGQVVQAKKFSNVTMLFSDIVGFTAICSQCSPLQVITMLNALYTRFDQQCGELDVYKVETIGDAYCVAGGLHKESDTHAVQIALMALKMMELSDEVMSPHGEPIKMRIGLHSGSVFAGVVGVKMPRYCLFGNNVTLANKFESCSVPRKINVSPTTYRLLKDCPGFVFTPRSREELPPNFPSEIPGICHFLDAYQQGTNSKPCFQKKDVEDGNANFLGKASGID
T1 sequence (Q02153 1-619): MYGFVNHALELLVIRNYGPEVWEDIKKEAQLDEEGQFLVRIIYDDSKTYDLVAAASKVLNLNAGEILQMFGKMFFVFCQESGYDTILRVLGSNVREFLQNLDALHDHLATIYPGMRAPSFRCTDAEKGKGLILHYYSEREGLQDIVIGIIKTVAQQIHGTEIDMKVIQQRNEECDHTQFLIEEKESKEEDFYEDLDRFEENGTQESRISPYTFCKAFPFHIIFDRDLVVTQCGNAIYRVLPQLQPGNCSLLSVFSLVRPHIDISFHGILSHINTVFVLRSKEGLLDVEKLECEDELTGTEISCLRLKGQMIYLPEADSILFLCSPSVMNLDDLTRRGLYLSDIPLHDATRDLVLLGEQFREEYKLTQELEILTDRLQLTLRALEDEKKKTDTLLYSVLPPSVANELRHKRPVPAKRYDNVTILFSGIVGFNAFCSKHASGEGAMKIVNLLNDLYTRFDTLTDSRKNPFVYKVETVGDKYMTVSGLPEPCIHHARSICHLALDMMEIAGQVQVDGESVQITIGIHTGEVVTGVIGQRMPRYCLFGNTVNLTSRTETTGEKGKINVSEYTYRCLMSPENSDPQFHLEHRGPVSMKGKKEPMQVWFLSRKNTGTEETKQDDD
Briefly: Cell-based sGC functional assay (CASA assay): cGMP generation in CHO-K1/sGC cells, HTRF detection. Conditions: for Emax: CHO-K1, percent activation relative to standard Compound A in CHO-K1/sGC cells, read-out: % Act.; for EC50: inflection point (IP) of cGMP generation in CHO-K1/sGC cells, 4P fit, activity expressed as percentage of Compound A. Put shortly: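 Stable CHO-K1/sGC cells in EBSS buffer with 5 mM MgCl2, 0.05% BSA and 0.5 mM IBMX were incubated with compound (2.5% DMSO final) ±1 μM DETA-NO for 1 hr at 37° C. cGMP was measured by HTRF. Activation is expressed as % of reference HDA Compound A maximum, with IP and max fold induction from a 4P fit.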

Usually EC50 stands for the concentration at which the effect is half-maximal. A high value points to lower potency in that assay.

SMILES strings stand for the structures.

Regarding `CC1(c2ccc(F)cc2)C(=O)Nc2nc(-c3cn4ccnc4c(CCC(F)(F)C(F)(F)F)n3)nc(N3CCN(S(C)(=O)=O)CC3)c21` (stereo not drawn) [Example 299A, 5-(4-fluorophenyl)-5-methyl-4-(4-(methylsulfonyl)piperazin-1-yl)-2-(8-(3,3,4,4,4-pentafluorobutyl)imidazo[1,2-a]pyrazin-6-yl)-5H-pyrrolo[2,3-d]pyrimidin-6(7H)-one], the Emax was 114% and the EC50 came to 0.624 µM.

In the case of `CC1(c2ccc(F)cc2)C(=O)Nc2nc(-c3cn4ccnc4c(CCC(F)(F)C(F)(F)F)n3)nc(N3CCSCC3)c21` (stereo not drawn) [Example 300A, 5-(4-fluorophenyl)-5-methyl-2-(8-(3,3,4,4,4-pentafluorobutyl)imidazo[1,2-a]pyrazin-6-yl)-4-thiomorpholine-5H-pyrrolo[2,3-d]pyrimidin-6(7H)-one], the Emax worked out at 136% and the EC50 came out at 0.492 µM.

Regarding `CC1(c2ccc(F)cc2)C(=O)Nc2nc(-c3cn4ccnc4c(CCC(F)(F)C(F)(F)F)n3)nc(N3CCCC3)c21` (stereo not drawn) [Example 301A, 5-(4-fluorophenyl)-5-methyl-2-(8-(3,3,4,4,4-pentafluorobutyl)imidazo[1,2-a]pyrazin-6-yl)-4-(pyrrolidin-1-yl)-5H-pyrrolo[2,3-d]pyrimidin-6(7H)-one], the Emax worked out at 116% and the EC50 came to 0.317 µM.

For `CC1(C)CN(c2nc(-c3cn4ccnc4c(CCC(F)(F)C(F)(F)F)n3)nc3c2C(C)(c2ccc(F)cc2)C(=O)N3)C1` (stereo not drawn) [Example 302A, 4-(3,3-dimethylazetidin-1-yl)-5-(4-fluorophenyl)-5-methyl-2-(8-(3,3,4,4,4-pentafluorobutyl)imidazo[1,2-a]pyrazin-6-yl)-5H-pyrrolo[2,3-d]pyrimidin-6(7H)-one], the Emax amounted to 105% and the EC50 was 0.551 µM.

For `C[C@@H]1CN(c2nc(-c3cn4ccnc4c(CCC(F)(F)C(F)(F)F)n3)nc3c2C(C)(c2ccc(F)cc2)C(=O)N3)C[C@H](C)O1` (stereo partly drawn) [Example 303A, 4-((2R,6S)-2,6-dimethylmorpholino)-5-(4-fluorophenyl)-5-methyl-2-(8-(3,3,4,4,4-pentafluorobutyl)imidazo[1,2-a]pyrazin-6-yl)-5H-pyrrolo[2,3-d]pyrimidin-6(7H)-one], the Emax amounted to 101% and a half-maximal response (EC50) required 0.425 µM.

Take `CC1(C)CN(c2nc(-c3cn4ccnc4c(CCC(F)(F)C(F)(F)F)n3)nc3c2C(C)(c2ccc(F)cc2)C(=O)N3)CCO1` (stereo not drawn) [Example 304A, 4-(2,2-dimethylmorpholino)-5-(4-fluorophenyl)-5-mehtyl-2-(8-(3,3,4,4,4-pentafluorobutyl)imidazo[1,2-a]pyrazin-6-yl)-5H-pyrrolo[2,3-d]pyrimidin-6(7H)-one]: the Emax is 89% and it took 0.415 µM to reach a half-maximal effect (EC50).

On to `CC1CN(c2nc(-c3cn4ccnc4c(CCC(F)(F)C(F)(F)F)n3)nc3c2C(C)(c2ccc(F)cc2)C(=O)N3)C1` (stereo not drawn) [Example 305A, 5-(4-fluorophenyl)-5-methyl-4-(3-methylazetidin-1-yl)-2-(8-(3,3,4,4,4-pentafluorobutyl)imidazo[1,2-a]pyrazin-6-yl)-5H-pyrrolo[2,3-d]pyrimidin-6(7H)-one], for which the Emax came to 158% and the EC50 was 0.147 µM.

Take `CC1(c2ccc(F)cc2)C(=O)Nc2nc(-c3cn4ccnc4c(CCC(F)(F)C(F)(F)F)n3)nc(N3CCC3)c21` (stereo not drawn) [Example 306A, 4-(azetidin-1-yl)-5-(4-fluorophenyl)-5-methyl-2-(8-(3,3,4,4,4-pentafluorobutyl)imidazo[1,2-a]pyrazin-6-yl)-5H-pyrrolo[2,3-d]pyrimidin-6(7H)-one]: the Emax was determined as 108% and the EC50 came out at 0.108 µM.

For `CNc1nc(-c2cn3ccnc3c(CCC(F)(F)C(F)(F)F)n2)nc2c1C(C)(c1ccc(F)cc1)C(=O)N2` (stereo not drawn) [Example 307A, 5-(4-fluorophenyl)-5-methyl-4-(methylamino)-2-(8-(3,3,4,4,4-pentafluorobutyl)imidazo[1,2-a]pyrazin-6-yl)-5H-pyrrolo[2,3-d]pyrimidin-6(7H)-one], the Emax was 93% and the EC50 worked out at 0.152 µM.

Consider `CN(C)c1nc(-c2cn3ccnc3c(CCC(F)(F)C(F)(F)F)n2)nc2c1C(C)(c1ccc(F)cc1)C(=O)N2` (stereo not drawn) [Example 308A, 4-(dimethylamino)-5-(4-fluorophenyl)-5-methyl-2-(8-(3,3,4,4,4-pentafluorobutyl)imidazo[1,2-a]pyrazin-6-yl)-5H-pyrrolo[2,3-d]pyrimidin-6(7H)-one], for which the Emax turned out to be 126% and the EC50 amounted to 0.281 µM.

For `COCCNc1nc(-c2cn3ccnc3c(CCC(F)(F)C(F)(F)F)n2)nc2c1C(C)(c1ccc(F)cc1)C(=O)N2` (stereo not drawn) [Example 309A, 5-(4-fluorophenyl)-4-((2-methoxyethyl)amino)-5-methyl-2-(8-(3,3,4,4,4-pentafluorobutyl)imidazo[1,2-a]pyrazin-6-yl)-5H-pyrrolo[2,3-d]pyrimidin-6(7H)-one], the Emax is 97% and it took 0.039 µM to reach a half-maximal effect (EC50).

Turning to `CC1(c2ccc(F)cc2)C(=O)Nc2nc(-c3cn4ccnc4c(CCC(F)(F)C(F)(F)F)n3)nc(N3CCOCC3)c21` (stereo not drawn) [Example 310A, 5-(4-fluorophenyl)-5-methyl-4-morpholino-2-(8-(3,3,4,4,4-pentafluorobutyl)imidazo[1,2-a]pyrazin-6-yl)-5H-pyrrolo[2,3-d]pyrimidin-6(7H)-one], the Emax is 77% and the EC50 was determined as 0.045 µM.

Take `CN(C)c1nc(-c2cn3ccnc3cn2)nc2c1C(C)(c1ccc(Cl)cc1)C(=O)N2` (stereo not drawn) [Example 312A]: the Emax is 93% and a half-maximal response (EC50) required 0.025 µM.

`COCCNc1nc(-c2cn3ccnc3c(CCC(F)(F)C(F)(F)F)n2)nc2c1C(C)(C)C(=O)N2` [Example 313, 4-((2-Methoxyethyl)amino)-5,5-dimethyl-2-(8-(3,3,4,4,4-pentafluorobutyl)imidazo[1,2-a]pyrazin-6-yl)-5H-pyrrolo[2,3-d]pyrimidin-6(7H)-one]: the Emax was 93% and a half-maximal response (EC50) required 0.025 µM.

Regarding `CCc1nc(C2(C)C(=O)Nc3nc(-c4cn5ccnc5c(CCC(F)(F)C(F)(F)F)n4)nc(N)c32)no1` (stereo not drawn) [Example 320B, 4-amino-5-(5-ethyl-1,2,4-oxadiazol-3-yl)-5-methyl-2-(8-(3,3,4,4,4-pentafluorobutyl)imidazo[1,2-a]pyrazin-6-yl)-5H-pyrrolo[2,3-d]pyrimidin-6(7H)-one], the Emax was determined as 204% and a half-maximal response (EC50) required 0.085 µM.

For `Nc1nc(-c2cn3ccnc3c(CCC(F)(F)F)n2)nc2c1C(c1ccc(C(F)(F)F)cn1)(C1CC1)C(=O)N2` (stereo not drawn) [Example 340A, 4-amino-5-cyclopropyl-5-(5-(trifluoromethyl)pyridin-2-yl)-2-(8-(3,3,3-trifluoropropyl)imidazo[1,2-a]pyrazin-6-yl)-5H-pyrrolo[2,3-d]pyrimidin-6(7H)-one], the Emax worked out at 129% and the EC50 amounted to 0.808 µM.

Take `CCCc1nc(-c2nc(N)c3c(n2)NC(=O)C3(c2ccc(C(F)(F)F)cn2)C2CC2)cn2ccnc12` (stereo not drawn) [Example 341A, 4-amino-5-cyclopropyl-2-(8-propylimidazo[1,2-a]pyrazin-6-yl)-5-(5-(trifluoromethyl)pyridin-2-yl)-5H-pyrrolo[2,3-d]pyrimidin-6(7H)-one]: the Emax was found to be 106% and the EC50 was determined as 2.1 µM.

Regarding `COc1ccc(C2(C3CC3)C(=O)Nc3nc(-c4cn5ccnc5c(CCC(F)(F)C(F)(F)F)n4)nc(N)c32)cn1` (stereo not drawn) [Example 343A, 4-amino-5-cyclopropyl-5-(6-methoxypyridin-3-yl)-2-(8-(3,3,4,4,4-pentafluorobutyl)imidazo[1,2-a]pyrazin-6-yl)-5H-pyrrolo[2,3-d]pyrimidin-6(7H)-one], the Emax was 121% and the EC50 worked out at 0.046 µM.

Values taken from US9796733B2, “Imidazo-pyrazine derivatives useful as soluble guanylate cyclase activators” (Merck Sharp & Dohme Corp., priority 2014, dated 2017).
